Test results published in patent US9040506B2, “7,11-methanocycloocta [B] quinoline derivative as highly functionalizable acetylcholinesterase inhibitors” (priority 2010, dated 2015).
Structures can show the parent of a compound that is named as a salt. Where two headings read alike, the source gives them in different places.

How the values were obtained:
[1] = target: rh-AChE (Homo sapiens, UniProt P22303); experiment: biochemical
[2] = target: rh-BuChE (Homo sapiens, UniProt P06276); experiment: IC50 rh-BuChE; type: biochemical
[3] = target: T1, erythrocyte h-AChE (Homo sapiens, UniProt P22303); experiment: IC50 erythrocyte h-AChE; type: biochemical; details: read-out: IC50 erythrocyte h-AChE
T1 construct: from tissue; host or cells: human erythrocytes
T1 sequence (P22303 32-617 isoform P22303-2 limits assumed): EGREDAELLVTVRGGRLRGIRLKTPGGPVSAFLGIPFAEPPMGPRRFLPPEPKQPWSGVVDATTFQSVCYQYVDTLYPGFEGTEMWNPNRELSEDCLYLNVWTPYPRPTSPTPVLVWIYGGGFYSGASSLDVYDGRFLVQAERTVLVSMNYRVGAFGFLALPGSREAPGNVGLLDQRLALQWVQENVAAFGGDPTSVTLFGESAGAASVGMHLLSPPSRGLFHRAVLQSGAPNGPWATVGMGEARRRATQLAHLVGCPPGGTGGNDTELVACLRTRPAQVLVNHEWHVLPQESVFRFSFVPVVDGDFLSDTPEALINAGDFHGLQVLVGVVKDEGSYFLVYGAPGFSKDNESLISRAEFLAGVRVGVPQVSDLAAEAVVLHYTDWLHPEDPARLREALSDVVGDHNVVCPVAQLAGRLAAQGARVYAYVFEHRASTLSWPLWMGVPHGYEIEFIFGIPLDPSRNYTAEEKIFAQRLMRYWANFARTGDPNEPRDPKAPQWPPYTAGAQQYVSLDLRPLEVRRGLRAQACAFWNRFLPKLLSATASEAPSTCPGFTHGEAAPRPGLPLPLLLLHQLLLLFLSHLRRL

Chain of rh-AChE (P22303 32-614): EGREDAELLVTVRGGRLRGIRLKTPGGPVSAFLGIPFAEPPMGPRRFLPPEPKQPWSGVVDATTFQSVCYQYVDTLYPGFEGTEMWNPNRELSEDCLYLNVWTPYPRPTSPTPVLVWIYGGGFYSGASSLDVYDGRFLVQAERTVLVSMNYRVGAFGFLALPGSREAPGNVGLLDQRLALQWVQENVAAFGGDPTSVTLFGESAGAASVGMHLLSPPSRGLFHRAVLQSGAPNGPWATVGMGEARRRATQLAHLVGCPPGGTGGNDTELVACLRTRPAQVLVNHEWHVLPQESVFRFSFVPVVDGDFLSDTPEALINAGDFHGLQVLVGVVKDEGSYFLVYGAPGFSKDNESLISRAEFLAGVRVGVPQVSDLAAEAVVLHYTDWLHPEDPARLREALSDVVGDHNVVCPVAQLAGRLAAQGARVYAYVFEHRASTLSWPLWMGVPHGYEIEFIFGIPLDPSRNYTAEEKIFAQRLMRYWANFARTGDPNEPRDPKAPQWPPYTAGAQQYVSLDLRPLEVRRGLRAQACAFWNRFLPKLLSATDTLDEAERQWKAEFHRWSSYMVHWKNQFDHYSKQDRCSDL
Chain of rh-BuChE (P06276 29-602): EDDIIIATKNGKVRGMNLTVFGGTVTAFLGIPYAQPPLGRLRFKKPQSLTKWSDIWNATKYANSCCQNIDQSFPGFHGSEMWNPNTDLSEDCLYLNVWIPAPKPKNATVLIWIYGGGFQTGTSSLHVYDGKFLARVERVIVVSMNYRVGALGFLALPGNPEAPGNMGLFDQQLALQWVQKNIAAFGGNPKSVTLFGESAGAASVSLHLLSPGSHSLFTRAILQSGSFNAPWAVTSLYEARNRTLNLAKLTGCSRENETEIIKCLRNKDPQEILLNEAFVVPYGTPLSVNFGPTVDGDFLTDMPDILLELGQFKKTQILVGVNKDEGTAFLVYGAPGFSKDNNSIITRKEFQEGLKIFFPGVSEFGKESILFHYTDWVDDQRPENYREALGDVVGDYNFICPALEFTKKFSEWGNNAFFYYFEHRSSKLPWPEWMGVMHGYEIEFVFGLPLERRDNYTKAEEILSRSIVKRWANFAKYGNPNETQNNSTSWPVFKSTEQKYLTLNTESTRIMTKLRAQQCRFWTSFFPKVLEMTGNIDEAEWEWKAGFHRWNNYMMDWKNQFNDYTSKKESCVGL

Compound	IC50 ([1]; read-out: IC50 rh-AChE) [nM]	IC50 ([2]; read-out: IC50 rh-BuChE) [nM]	IC50 [3] [nM]	IC50 [1] [nM]	IC50 [2] [nM]
COc1cc2c(cc1OC)C(c1ccccc1)N(Cc1cn(CCCCC3=CC4Cc5nc6cc(Cl)ccc6c(N)c5C(C3)C4)nn1)CC2 (centres unmarked) [HUP32-PIQ1, 3-Chloro-9-(4-{4-[(6,7-dimethoxy-1-phenyl-3,4-dihydroisoquinolin-2(1H)-yl)methyl]-1H-1,2,3-triazol-1-yl}butyl)-6,7,10,11-tetrahydro-7,11-methanocycloocta[b]quinolin-12-amine Ditrifluoroacetic Acid]	3.31 ± 0.2	20.6 ± 0.2	–	–	–
COc1cc2c(cc1OC)C(c1ccccc1)N(CCCc1cn(CCCCC3=CC4Cc5nc6cc(Cl)ccc6c(N)c5C(C3)C4)nn1)CC2 (centres unmarked) [HUP32-PIQ3, 3-Chloro-9-(4-{4-[3-(6,7-dimethoxy-1-phenyl-3,4-dihydroisoquinolin-2(1H)-yl)propyl]-1H-1,2,3-triazol-1-yl}butyl)-6,7,10,11-tetrahydro-7,11-methanocycloocta[b]quinolin-12-amine Ditrifluoroacetic Acid]	0.61 ± 0.1	11.4 ± 0.6	–	–	–
COc1cc2c(cc1OC)C(c1ccccc1)N(CCCCc1cn(CCCCC3=CC4Cc5nc6cc(Cl)ccc6c(N)c5C(C3)C4)nn1)CC2 (centres unmarked) [HUP32-PIQ4, 3-Chloro-9-(4-{4-[4-(6,7-dimethoxy-1-phenyl-3,4-dihydroisoquinolin-2(1H)-yl)butyl]-1H-1,2,3-triazol-1-yl}butyl)-6,7,10,11-tetrahydro-7,11-methanocycloocta[b]quinolin-12-amine Ditrifluoroacetic Acid]	0.78 ± 0.1	9.5 ± 0.6	–	–	–
CCOC(=O)CC1=CC2Cc3nc4cc(Cl)ccc4c(N)c3C(C1)C2 (centres unmarked) [HUP 1, Ethyl (12-Amino-3-chloro-6,7,10,11-tetrahydro-7,11-methanocycloocta[b]quinolin-9-yl)acetate]	3.9 ± 0.5	137 ± 11	38.3	–	–
C=CC1=CC2Cc3nc4cc(Cl)ccc4c(N)c3C(C1)C2 (centres unmarked) [HUP 3, 3-Chloro-9-vinyl-6,7,10,11-tetrahydro-7,11-methanocycloocta[b]quinolin-12-amine Trifluoroacetic Acid]	1.32 ± 0.17	180 ± 13	405	–	–
CC(=O)OCCC1=CC2Cc3nc4cc(Cl)ccc4c(N)c3C(C1)C2 (centres unmarked) [HUP 4, 2-(12-Amino-3-chloro-6,7,10,11-tetrahydro-7,11-methanocycloocta[b]quinolin-9-yl)ethyl Acetate]	1.44 ± 0.18	–	12	–	–
Nc1c2c(nc3cc(Cl)ccc13)CC1C=C(CCOC(=O)C(F)(F)F)CC2C1 (centres unmarked) [HUP 5, 2-(12-Amino-3-chloro-6,7,10,11-tetrahydro-7,11-methanocycloocta[b]quinolin-9-yl)ethyl Trifluoroacetate]	1.69 ± 0.16	1360	27.5	–	–
COCCC1=CC2Cc3nc4cc(Cl)ccc4c(N)c3C(C1)C2 (centres unmarked) [HUP 6, 3-Chloro-9-(2-methoxyethyl)-6,7,10,11-tetrahydro-7,11-methanocycloocta[b]quinolin-12-amine]	1.75 ± 0.21	401 ± 26	4.5	–	–
Nc1c2c(nc3cc(Cl)ccc13)CC1C=C(CCI)CC2C1 (centres unmarked) [HUP 7, 3-Chloro-9-(2-iodoethyl)-6,7,10,11-tetrahydro-7,11-methanocycloocta[b]quinolin-12-amine]	2.7 ± 0.82	141 ± 7	–	–	–
N#CCCC1=CC2Cc3nc4cc(Cl)ccc4c(N)c3C(C1)C2 (centres unmarked) [HUP 8, 3-(12-Amino-3-chloro-6,7,10,11-tetrahydro-7,11-methanocycloocta[b]quinolin-9-yl)propanenitrile Trifluoroacetic Acid]	3.15 ± 0.42	514 ± 58	–	–	–
Nc1c2c(nc3cc(Cl)ccc13)CC1C=C(CCCl)CC2C1 (centres unmarked) [HUP 9, 3-Chloro-9-(2-chloroethyl)-6,7,10,11-tetrahydro-7,11-methanocycloocta[b]quinolin-12-amine Trifluoroacetic Acid]	3.56 ± 0.2	207 ± 12	5.09	–	–
Nc1c2c(nc3cc(Cl)ccc13)CC1C=C(CCF)CC2C1 (centres unmarked) [HUP 10, 3-Chloro-9-(2-fluoroethyl)-6,7,10,11-tetrahydro-7,11-methanocycloocta[b]quinolin-12-amine]	4.16 ± 0.79	522 ± 120	–	–	–
Nc1c2c(nc3cc(Cl)ccc13)CC1C=C(CC(=O)O)CC2C1 (centres unmarked) [HUP 11, 12-Amino-3-chloro-9-carboxymethyl-6,7,10,11-tetrahydro-7,11 methanocycloocta[b]quinoline Hydrochloride]	–	–	–	5.3 ± 1.1	–
[N-]=[N+]=NCCC1=CC2Cc3nc4cc(Cl)ccc4c(N)c3C(C1)C2 (centres unmarked) [HUP 12, 9-(2-Azidoethyl)-3-chloro-6,7,10,11-tetrahydro-7,11-methanocycloocta[b]quinolin-12-amine]	5.56 ± 0.82	522 ± 120	–	–	–
CS(=O)(=O)OCCC1=CC2Cc3nc4cc(Cl)ccc4c(N)c3C(C1)C2 (centres unmarked) [HUP 13, 2-(12-Amino-3-chloro-6,7,10,11-tetrahydro-7,11-methanocycloocta[b]quinolin-9-yl) Ethyl Methanesulfonate]	8.5 ± 1.1	415 ± 97	–	–	–
NNCCC1=CC2Cc3nc4cc(Cl)ccc4c(N)c3C(C1)C2 (centres unmarked) [HUP 14, 3-Chloro-9-(2-hydrazinoethyl)-6,7,10,11-tetrahydro-7,11-methanocyclo octa[b]quinolin-12-amine Ditrifluoroacetic Acid]	9.5 ± 2.7	–	–	–	668 ± 110

Compound	IC50 ([1]; read-out: IC50 rh-AChE) [nM]	IC50 ([2]; read-out: IC50 rh-BuChE) [nM]	IC50 [3] [nM]	IC50 [1] [nM]	IC50 [2] [nM]
Nc1c2c(nc3cc(Cl)ccc13)CC1C=C(CCNO)CC2C1 (centres unmarked) [HUP 15, 3-Chloro-9-[2-(hydroxyamino)ethyl]-6,7,10,11-tetrahydro-7,11-methano cycloocta[b]quinolin-12-amine Ditrifluoroacetic Acid]	18.5 ± 2.2	–	–	–	–
CC(C)(C)OC(=O)ON(CCC1=CC2Cc3nc4cc(Cl)ccc4c(N)c3C(C1)C2)C(=O)OC(C)(C)C (centres unmarked) [HUP 16, Tert-butyl[2-(12-amino-3-chloro-6,7,10,11-tetrahydro-7,11-methanocycloocta[b]quinolin-9-yl)ethyl][(tert-butoxycarbonyl)oxy]carbamate]	14.8 ± 3.2	421 ± 72	–	–	–
NC(=O)OCCC1=CC2Cc3nc4cc(Cl)ccc4c(N)c3C(C1)C2 (centres unmarked) [HUP 17, 2-(12-Amino-3-chloro-6,7,10,11-tetrahydro-7,11-methanocycloocta[b]quinolin-9-yl)ethyl Carbamate Trifluoroacetic Acid]	18.5 ± 2.2	413 ± 40	–	–	–
CN(C)C(=O)CC1=CC2Cc3nc4cc(Cl)ccc4c(N)c3C(C1)C2 (centres unmarked) [HUP 19, 2-(12-Amino-3-chloro-6,7,10,11-tetrahydro-7,11-methanocycloocta[b]quinolin-9-yl)-N,N-dimethylacetamide Trifluoroacetic Acid]	26.3 ± 1.7	2760	–	–	–
NC(=O)CC1=CC2Cc3nc4cc(Cl)ccc4c(N)c3C(C1)C2 (centres unmarked) [HUP 20, 2-(12-Amino-3-chloro-6,7,10,11-tetrahydro-7,11-methanocycloocta[b]quinolin-9-yl)acetamide Trifluoroacetic Acid]	29.3 ± 3.7	–	–	–	–
CN(C)CCC1=CC2Cc3nc4cc(Cl)ccc4c(N)c3C(C1)C2 (centres unmarked) [HUP 21, 3-Chloro-9-[2-(dimethylamino)ethyl]-6,7,10,11-tetrahydro-7,11-methano cycloocta[b]quinolin-12-amine Ditrifluoroacetic Acid]	97 ± 10	–	–	–	2910
COC(=O)c1cn(CCC2=CC3Cc4nc5cc(Cl)ccc5c(N)c4C(C2)C3)nn1 (centres unmarked) [HUP 22, Methyl 1-[2-(12-amino-3-chloro-6,7,10,11-tetrahydro-7,11-methanocycloocta[b]quinolin-9-yl)ethyl]-1H-1,2,3-triazole-4-carboxylate]	130 ± 15	–	–	–	–
Nc1c2c(nc3cc(Cl)ccc13)CC1C=C(CCn3cc(CO)nn3)CC2C1 (centres unmarked) [HUP 23, {1-[2-(12-Amino-3-chloro-6,7,10,11-tetrahydro-7,11-methanocycloocta[b]quinolin-9-yl)ethyl]-1H-1,2,3-triazol-4-yl}methanol Trifluoroacetic Acid]	210 ± 28	–	–	–	–
C[N+](C)(C)CCC1=CC2Cc3nc4cc(Cl)ccc4c(N)c3C(C1)C2 (centres unmarked) [HUP 25, 2-(12-Amino-3-chloro-6,7,10,11-tetrahydro-7,11-methanocycloocta[b]quinolin-9-yl)-N,N,N-trimethylethanaminium Ditrifluoroacetic Acid]	262 ± 22	–	–	–	–
Nc1c2c(nc3cc(Cl)ccc13)CC1C=C(CCC(CO)CO)CC2C1 (centres unmarked) [HUP 28, 2-[2-(12-Amino-3-chloro-6,7,10,11-tetrahydro-7,11-methanocycloocta[b]quinolin-9-yl)ethyl]propane-1,3-diol Trifluoroactic Acid]	24.7 ± 1.2	–	40.2	–	–
Nc1c2c(nc3cc(Cl)ccc13)CC1C=C(CCCCn3cc(COC(=O)C(F)(F)F)nn3)CC2C1 (centres unmarked) [HUP 35, {1-[4-(12-Amino-3-chloro-6,7,10,11-tetrahydro-7,11-methanocycloocta[b]quinolin-9-yl)butyl]-1H-1,2,3-triazol-4-yl}methyl Trifluoroacetate]	34.6 ± 2.6	–	69.8	–	–
C=C1c2nc3cc(Cl)ccc3c(N)c2C2CC(CCCC(=O)OCC)=CC1C2 (centres unmarked) [HUP 36, Ethyl 4-(12-Amino-3-chloro-6-methylene-6,7,10,11-tetrahydro-7,11-methanocycloocta[b]quinolin-9-yl)butanoate]	90.6 ± 8.4	–	–	–	–
C=C1c2nc3cc(Cl)ccc3c(N)c2C2CC(CCCCO)=CC1C2 (centres unmarked) [HUP 37, 4-(12-Amino-3-chloro-6-methylene-6,7,10,11-tetrahydro-7,11-methanocycloocta[b]quinolin-9-yl)butan-1-ol Trifluoroacetic Acid]	256 ± 34	–	–	–	–
Nc1c2c(nc3ccccc13)CC1C=C(CCCCn3cc(CO)nn3)CC2C1 (centres unmarked) [HUP 38, {1-[4-(12-Amino-6,7,10,11-tetrahydro-7,11-methanocycloocta[b]quinolin-9-yl)butyl]-1H-1,2,3-triazol-4-yl}methanol Trifluoroacetic Acid]	94.1 ± 2.8	357 ± 16	–	–	–
CS(=O)(=O)OCCC1=CC2Cc3nc4ccccc4c(N)c3C(C1)C2 (centres unmarked) [HUP 39, 2-(12-Amino-6,7,10,11-tetrahydro-7,11-methanocycloocta[b]quinolin-9-yl) Ethyl Methanesulfonate]	149 ± 6	171 ± 4	–	–	–
